Biological target: T1, Ku70/80 (Homo sapiens, UniProt P12956+P13010)
T1 construct: purchased AMRI
Assay: EMSA IC50 (AMRI Ku70/80)
Assay type: binding
Details: Hill equation fitted

T1 sequence (P12956 whole entry): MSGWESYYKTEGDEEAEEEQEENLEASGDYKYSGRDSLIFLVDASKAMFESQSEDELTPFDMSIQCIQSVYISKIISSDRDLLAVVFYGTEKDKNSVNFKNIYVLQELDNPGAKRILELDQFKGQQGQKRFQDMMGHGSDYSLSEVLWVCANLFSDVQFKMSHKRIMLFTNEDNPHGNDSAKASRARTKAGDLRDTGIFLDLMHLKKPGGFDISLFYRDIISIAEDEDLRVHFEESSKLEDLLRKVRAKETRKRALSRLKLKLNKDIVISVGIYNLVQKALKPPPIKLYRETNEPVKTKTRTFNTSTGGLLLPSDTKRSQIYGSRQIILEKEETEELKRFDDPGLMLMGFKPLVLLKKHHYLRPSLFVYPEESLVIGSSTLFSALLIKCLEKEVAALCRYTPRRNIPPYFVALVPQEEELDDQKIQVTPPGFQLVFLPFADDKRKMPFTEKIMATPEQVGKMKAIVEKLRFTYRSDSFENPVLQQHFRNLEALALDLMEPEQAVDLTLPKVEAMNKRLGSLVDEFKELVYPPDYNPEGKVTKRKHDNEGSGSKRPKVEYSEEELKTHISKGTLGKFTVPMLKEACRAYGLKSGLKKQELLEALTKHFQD
T1 sequence (P13010 whole entry): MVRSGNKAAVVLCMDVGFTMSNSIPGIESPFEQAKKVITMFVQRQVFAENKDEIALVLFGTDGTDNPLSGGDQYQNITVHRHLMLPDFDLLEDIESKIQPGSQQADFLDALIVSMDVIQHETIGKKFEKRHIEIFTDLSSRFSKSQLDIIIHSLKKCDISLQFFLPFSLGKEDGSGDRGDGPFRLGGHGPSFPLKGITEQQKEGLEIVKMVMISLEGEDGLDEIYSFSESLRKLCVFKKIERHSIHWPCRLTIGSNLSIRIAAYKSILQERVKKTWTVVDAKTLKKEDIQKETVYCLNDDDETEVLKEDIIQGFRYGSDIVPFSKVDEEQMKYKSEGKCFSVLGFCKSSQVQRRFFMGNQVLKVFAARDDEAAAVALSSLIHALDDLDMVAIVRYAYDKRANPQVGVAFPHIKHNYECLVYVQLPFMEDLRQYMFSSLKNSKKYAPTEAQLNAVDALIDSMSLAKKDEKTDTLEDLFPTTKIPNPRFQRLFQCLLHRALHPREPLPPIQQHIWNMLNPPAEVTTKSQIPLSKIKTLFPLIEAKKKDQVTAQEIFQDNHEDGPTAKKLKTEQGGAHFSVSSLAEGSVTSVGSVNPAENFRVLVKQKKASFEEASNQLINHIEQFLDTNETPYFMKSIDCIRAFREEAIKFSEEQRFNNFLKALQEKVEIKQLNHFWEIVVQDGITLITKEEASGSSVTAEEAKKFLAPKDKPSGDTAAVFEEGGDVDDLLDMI

Row | Compound | IC50
1 | O=c1[nH]c2nc(NCCc3ccc4c(c3)OCCO4)ncc2c(=O)n1-c1cccc(F)c1 | 20 µM
2 | CN(CCc1cccc(F)c1)c1ncc2c(=O)n(-c3cccc(F)c3)c(=O)[nH]c2n1 | 142 µM
3 | O=c1[nH]c2nc(NCCc3cccc(F)c3)ncc2c(=O)n1-c1cc(F)ccc1F | 249 µM
4 | CSc1ncc2c(=O)n(-c3ccc(Br)cc3)c(=O)[nH]c2n1 | 20 µM
5 | O=c1[nH]c2nc(NCCc3ccc(O)c(F)c3)ncc2c(=O)n1-c1cccc(F)c1 | 101 µM
6 | O=c1[nH]c2nc(NCCc3ccncc3)ncc2c(=O)n1-c1cccc(F)c1 | 18 µM
7 | NS(=O)(=O)c1ccc(-n2c(=O)[nH]c3nc(NCCc4cccc(F)c4)ncc3c2=O)cc1 | 6.9 µM
8 | O=c1[nH]c2nc(NCCc3cccc(F)c3)ncc2c(=O)n1CCO | 8.8 µM
9 | CCOC(=O)c1cccc(-n2c(=O)[nH]c3nc(NCCc4cccc(F)c4)ncc3c2=O)c1 | 11 µM
10 | COc1ccc(-n2c(=O)[nH]c3nc(NCCc4cccc(F)c4)ncc3c2=O)cc1OC | 22 µM
11 | O=c1[nH]c2nc(NCC3CCCc4c(F)cccc43)ncc2c(=O)n1-c1cccc(F)c1 (stereo not drawn) | 20 µM
12 | O=c1[nH]c2nc(NCCc3cccc(F)c3)ncc2c(=O)n1-c1nccs1 | 43 µM
13 | COc1ccc(CCNc2ncc3c(=O)n(-c4cccc(F)c4)c(=O)[nH]c3n2)cc1F | 54 µM
14 | O=c1[nH]c2nc(NCCc3cccc(F)c3)ncc2c(=O)n1CC1CCNCC1 | 45 µM
15 | O=c1[nH]c2nc(NCCc3cccc(F)c3)ncc2c(=O)n1-c1ccccn1 | 58 µM
16 | NS(=O)(=O)c1ccc(CCNc2ncc3c(=O)n(-c4cccc(F)c4)c(=O)[nH]c3n2)cc1 | 50 µM
17 | O=c1[nH]c2nc(NCCc3ccccc3)ncc2c(=O)n1-c1cccc(F)c1 | 28 µM
18 | O=c1[nH]c2nc(NCCc3cccnc3)ncc2c(=O)n1-c1cccc(F)c1 | 40 µM
19 | COc1ccc(CCN(C)c2ncc3c(=O)n(-c4cccc(F)c4)c(=O)[nH]c3n2)cc1OC | 184 µM
20 | O=c1[nH]c2nc(NCCc3cccc(F)c3)ncc2c(=O)n1-c1cccnc1 | 245 µM
21 | O=c1[nH]c2nc(N3CCc4cc(F)ccc4C3)ncc2c(=O)n1-c1cccc(F)c1 | 34 µM
22 | O=c1[nH]c2nc(NCCc3cccc(F)c3)ncc2c(=O)n1-c1ccc(N2CCOCC2)c(F)c1 | 6.9 µM

Further lines, results first:

Row | IC50 | Compound
23 | 7.6 µM | O=c1[nH]c2nc(NCCc3cccc(F)c3)ncc2c(=O)n1-c1ccc(Br)cc1
24 | 11 µM | COc1ccc(-n2c(=O)[nH]c3nc(NCCc4cccc(F)c4)ncc3c2=O)cc1F
25 | 10 µM | O=c1[nH]c2nc(NCCc3cccc(F)c3)ncc2c(=O)n1Cc1ccccc1F
26 | 196 µM | O=C(O)c1ccc(CNc2ncc3c(=O)n(-c4cccc(F)c4)c(=O)[nH]c3n2)cc1
27 | 33 µM | O=c1[nH]c2nc(NCCc3ccc(F)c(F)c3)ncc2c(=O)n1-c1cccc(F)c1
28 | 27 µM | COc1c(F)cccc1-n1c(=O)[nH]c2nc(NCCc3cccc(F)c3)ncc2c1=O
29 | 5.3 µM | CC(C)Cn1c(=O)[nH]c2nc(NCCc3cccc(F)c3)ncc2c1=O
30 | 9.1 µM | O=c1[nH]c2nc(NCCc3ccc4c(c3)OCO4)ncc2c(=O)n1-c1cccc(F)c1
31 | 21 µM | O=c1[nH]c2nc(NCc3cccc4c(F)cccc34)ncc2c(=O)n1-c1cccc(F)c1
32 | 18 µM | O=c1[nH]c2nc(NCCc3ccccn3)ncc2c(=O)n1-c1cccc(F)c1
33 | 20 µM | O=c1[nH]c2nc(NCCc3ccc4c(c3)OC(F)(F)O4)ncc2c(=O)n1-c1cccc(F)c1

— US20220274991A1, “SMALL MOLECULE INHIBITORS OF KU70/80 AND USES THEREOF” (Arizona Board of Regents on Behalf of the University of …, priority 2019, published 2022)
